ChEMBL document CHEMBL3301472, “MMV Malaria Box HIV and cytotoxicity screening”

Assays:
[1] = MMV: MTT Cytotoxicity Assay Day 3 pi, U87-CD4-CCR5 cells, % cell death @ 5mM compound; type: toxicity, cell-based; details: human, u87-cd4-ccr5, 5000 µM
[2] = MMV: MTT Cytotoxicity Assay Day 7 pi of Assay #11 (NO washout), U87-CD4-CXCR4 cells, % cell death @ 5mM compound; type: toxicity, cell-based; details: human, u87-cd4-cxcr4, 5000 µM
[3] = test system: Human immunodeficiency virus 1; assay: MMV: HIV CXCR4-tropic env NL4-3 pseudovirus assay produces luciferase signal in lieu of replicating viral particles Day 3 pi, U87-CD4-CXCR4, % inhibition at 5 mM compound; type: functional; parameters: dose or concentration left out as unconfirmed; details: Human immunodeficiency virus 1, NL4-3, U87.CD4.CXCR4, 72 h
[4] = MMV: MTT Cytotoxicity Assay Day 3 pi, U87-CD4-CXCR4 cells, % cell death @ 5mM compound; type: toxicity, cell-based; details: human, u87-cd4-cxcr4, 5000 µM
[5] = MMV: MTT Cytotoxicity Assay Day 7 pi of Assay #6 (compound washed out Day 1 pi), U87-CD4-CCR5 cells, % cell death @ 5mM compound; type: toxicity, cell-based; details: human, u87-cd4-ccr5, 5000 µM
[6] = MMV: MTT Cytotoxicity Assay Day 7 pi of Assay #7 (compound washed out Day 1 pi), U87-CD4-CXCR4 cells, % cell death @ 5mM compound; type: toxicity, cell-based; details: human, u87-cd4-cxcr4, 5000 µM
[7] = MMV: MTT Cytotoxicity Assay Day 7 pi of Assay #10 (NO washout), U87-CD4-CCR5 cells, % cell death @ 5mM compound; type: toxicity, cell-based; details: human, u87-cd4-ccr5, 5000 µM
[8] = test system: Human immunodeficiency virus 1; assay: MMV: HIV CXCR4-tropic env HxB2 pseudovirus assay produces luciferase signal in lieu of replicating viral particles Day 3 pi, U87-CD4-CXCR4, % inhibition at 5 mM compound; type: functional; parameters: dose or concentration left out as unconfirmed; details: Human immunodeficiency virus 1, HxB2, U87.CD4.CXCR4, 72 h
[9] = test system: Human immunodeficiency virus 1; assay: MMV: HIV JRFL CCR5-tropic replication-competent virus, virus & compound washed out Day 1 pi, P24 ELISA Day 7 pi, U87-CD4-CCR5, % inhibition at 5 mM compound; type: functional; parameters: dose or concentration left out as unconfirmed; details: Human immunodeficiency virus 1, JR-FL

Row | Compound | % Cell Death [1] | % Cell Death [2] | inhibition [3] [%] | % Cell Death [4] | % Cell Death [5] | % Cell Death [6] | % Cell Death [7] | inhibition [8] [%] | inhibition [9] [%]
1 | COc1ccc(Nc2nc(N/N=C/c3ccc(O)cc3)nc(Nc3ccc([N+](=O)[O-])cc3)n2)cc1 | 11 | 0 | 7 | 23 | 33 | 50 | 11 | – | –
2 | N=c1n(CCN2CCCCC2)c2ccccc2n1CC(=O)c1ccc(Cl)c(Cl)c1 | -21 | -14 | 0 | 9 | -5 | 4 | -3 | – | –
3 | COc1ccc(-c2cc3c(SCC(=O)Nc4cc(C(F)(F)F)ccc4Cl)nccn3n2)cc1 | 24 | 13 | – | 41 | 5 | -22 | 18 | 6 | –
4 | Cc1cc(NCCN2CCCCC2)c2ccc3ccccc3c2n1 | 64 | 5 | – | 34 | 30 | 16 | 31 | 1 | –
5 | CCOC(=O)C1=C(C)N=c2sc(=Cc3ccccc3O)c(=O)n2C1c1ccc(OC)c2ccccc12 (stereo not given) | 105 | 113 | – | 42 | 40 | 66 | 90 | -1 | –
6 | CCC(C)NCC(O)(c1ccc(Cl)cc1)c1ccc(Cl)cc1 (stereo not given) | -1 | 3 | 2 | 23 | -11 | -33 | 31 | – | -2
7 | CCC(c1ccccc1)c1nn2c(-c3cccs3)nnc2s1 (stereo not given) | 3 | 73 | 9 | 41 | 18 | 28 | 41 | – | 0
8 | Oc1ccc(-c2nc(-c3ccc4oc5ccc(-c6[nH]c(-c7ccc(O)cc7)nc6-c6ccccc6)cc5c4c3)c(-c3ccccc3)[nH]2)cc1 | -2 | 89 | 1 | 46 | -12 | 17 | 56 | – | –
9 | CCC1(C)CC(CCNCc2ccccc2O)(c2ccc(C)cc2)CCO1 (stereo not given) | -22 | 19 | – | 14 | 9 | 0 | 27 | 0 | –
10 | Cc1ccc(C)c(Cn2c(N3CCC(C(=O)NCc4cccs4)CC3)nc3ccccc32)c1 | 108 | 47 | – | 38 | 57 | 2 | 98 | 7 | –
11 | COc1ccccc1NC1=C(N2CCCCC2)C(=O)c2ccccc2C1=O | 34 | -50 | 5 | 15 | 22 | 8 | 19 | – | 1
12 | Cc1cc(NC(=O)C2c3ccccc3C(=O)N(CC(C)C)C2c2cccs2)no1 (stereo not given) | 23 | -16 | 8 | 26 | 55 | -20 | 36 | – | 7
13 | O=C(Nc1ccsc1C(=O)NC1CCCCC1)c1ccc(F)cc1 | -22 | -14 | 3 | 8 | -4 | -43 | -2 | – | -2
14 | Cc1ccc(C2CC(C(F)(F)F)n3nc(C(=O)N4CCN(C(c5ccccc5)c5ccccc5)CC4)cc3N2)cc1 (stereo not given) | 86 | 58 | – | 64 | 77 | 62 | 75 | 5 | –
15 | CC1CC(C)CN(C(=O)c2ccc(Cl)cc2Cl)C1 (stereo not given) | -5 | -51 | -1 | 31 | -14 | -16 | -31 | – | 5
16 | COc1ccc2c(=O)cc(C(Cl)(Cl)Cl)oc2c1 | 90 | 95 | – | 41 | 23 | 23 | 100 | 8 | –
17 | CCCCCCn1c(=N)n(CC(O)COc2cccc(C)c2)c2ccccc21.Cl (stereo not given) | 43 | 50 | – | 17 | 33 | -16 | 71 | 2 | –
18 | Br.CCn1c2c(c(=N)c3c1CCC3)CCCC2 | -56 | -11 | -2 | 30 | -8 | -30 | -14 | – | –
19 | O=C(NCc1ccco1)C1CCN(S(=O)(=O)c2ccc(Br)cc2)CC1 | 14 | -5 | – | 32 | 5 | -9 | -12 | 8 | –
20 | COc1ccc(-c2nc3cc(Cc4ccc5[nH]c(-c6ccc(OC)cc6)nc5c4)ccc3[nH]2)cc1 | -6 | 6 | – | 23 | -21 | -21 | 4 | 1 | –
21 | Oc1c(CN2CCN(c3ccccc3F)CC2)cc(Br)c2cccnc12 | 43 | 34 | – | 51 | 53 | 51 | 92 | 1 | –
22 | COc1ccc(C(=O)C2CC2c2ccc(Cl)cc2)cc1 (stereo not given) | 40 | 35 | -2 | 29 | 6 | 66 | 32 | – | 3
23 | CCc1ccc(Nc2cc(C)nc3nc(C)nn23)cc1 | 23 | 93 | – | 46 | 4 | 4 | 50 | 6 | –
24 | CCOC(=O)c1cnc2ccc(OC)cc2c1NCc1ccccc1 | -52 | 46 | – | 36 | -10 | 12 | -9 | -2 | –
25 | CCOC(=O)c1c[nH]c2c(CC)cccc2c1=O | 39 | 35 | 7 | 76 | 36 | 14 | -1 | – | 8
26 | CCCCc1c(CCC)c(=N)c2ccccc2n1C.I | -13 | -12 | 7 | 21 | 27 | 55 | -4 | – | –
